Test: Storage of concentrated MB-102 salt solution at 4° C. (precipitation)
Type: physicochemical
Conditions: 64.2 wt % solution in water, 4° C. for 7 days
Procedure: MB-102 (0.300 g, 0.81 mmol), was placed in a vial (4.0 mL). Water was added (0.8 mL, D.I.) and the mixture sonicated for a brief period of time. To the mixture was added aqueous 6.25 N NaOH (2 equivalents, 1.62 mmol, 0.24 mL, added in portions; 0.020 mL×12 to effect solution) with stirring and brief periods of sonication. […] The final concentration was 300 mg (2R,2′R)-2,2′-((3,6-diaminopyrazine-2,5-dicarbonyl)bis(azanediyl))bis(3-hydroxypropanoic acid), MB-102 per mL water (w/v).
MB-102 (0.30 g, 0.81 mmol) was weighed into a 5 mL v-vial equipped with a Teflon-covered magnetic spin vane. Choline hydroxide in water (Aldrich, 0.43 g of 46 wt %, 1.62 mmol) was added portion-wise with stirring until a solution was obtained. The total weight of the solution was 0.73 g or 64.2 wt % MB-102 di-choline salt (MW: 578.6).

C[N+](C)(C)CCO.C[N+](C)(C)CCO.Nc1nc(C(=O)NC(CO)C(=O)[O-])c(N)nc1C(=O)NC(CO)C(=O)[O-] (stereo not shown) [MB-102 di-choline salt]
precipitation on storage: no precipitation

Source: patent US20220143222A1, “SUBCUTANEOUS AND INTRAMUSCULAR ADMINISTRATION OF PYRAZINE COMPOUNDS” (MediBeacon Inc., priority 2020, published 2022)
